This note sets out measurements from patent US20100256104A1, “NOVEL AMIDE COMPOUNDS” (ASTRAZENECA R&D, priority 2009, published 2010).

The term pIC50 denotes the negative decadic logarithm of the IC50, by convention in mol/L.

Structures are written as SMILES. pIC50: −log10 of the molar value.

In the assay the target is T1, recombinant human GR (Homo sapiens, UniProt P04150).
T1 construct: purchased Panvera/Invitrogen P2812 (kit P2893)
T1 sequence (P04150 1-777): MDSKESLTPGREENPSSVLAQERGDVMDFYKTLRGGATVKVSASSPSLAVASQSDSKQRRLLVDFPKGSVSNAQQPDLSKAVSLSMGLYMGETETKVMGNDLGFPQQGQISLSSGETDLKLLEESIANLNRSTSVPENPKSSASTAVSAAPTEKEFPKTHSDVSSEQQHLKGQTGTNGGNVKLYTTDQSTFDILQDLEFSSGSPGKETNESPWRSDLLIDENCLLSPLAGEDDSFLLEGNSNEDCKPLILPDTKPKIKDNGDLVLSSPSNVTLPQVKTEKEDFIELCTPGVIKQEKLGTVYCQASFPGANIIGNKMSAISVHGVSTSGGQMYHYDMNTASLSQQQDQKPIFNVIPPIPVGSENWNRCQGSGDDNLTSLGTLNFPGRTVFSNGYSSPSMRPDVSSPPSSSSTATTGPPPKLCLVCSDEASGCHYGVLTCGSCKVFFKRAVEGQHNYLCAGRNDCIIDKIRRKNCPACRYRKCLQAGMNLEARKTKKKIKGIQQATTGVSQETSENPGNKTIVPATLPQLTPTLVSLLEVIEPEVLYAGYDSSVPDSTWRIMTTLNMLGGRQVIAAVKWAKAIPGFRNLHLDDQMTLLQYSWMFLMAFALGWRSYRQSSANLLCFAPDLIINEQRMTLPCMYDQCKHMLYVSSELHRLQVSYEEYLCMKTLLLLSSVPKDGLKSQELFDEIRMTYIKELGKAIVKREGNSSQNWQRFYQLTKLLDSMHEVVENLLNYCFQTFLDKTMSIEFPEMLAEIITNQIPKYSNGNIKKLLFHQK
Kind of assay: Human Glucocorticoid Receptor (GR) Assay, fluorescence polarization competition with GS Red tracer. As to conditions: 2 hours at room temperature, 100% control 10 μM Dexamethasone, XLfit model 205, read-out: Inhibition of GR binding, IC50. Put shortly:
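Fluorescence polarization competition: recombinant human GR with GS Red tracer, stabilizing peptide and DTT in potassium phosphate/sodium molybdate/EDTA buffer. 2 h in dark at room temperature, read at ex 530/em 590 nm. Controls: DMSO (0%) and 10 μM dexamethasone (100%).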
Take `CCC(=O)O[C@]1(C(=O)SC)CC[C@H]2[C@@H]3CCC4=Cc5c(cnn5-c5cccc(C(=O)N6CCC[C@@H]6C(N)=O)c5)C[C@]4(C)[C@@]3(F)[C@@H](O)C[C@@]21C` [Example 59, (1R,3aS,3bS,10aS, 10bR,11S,12aS)-7-(3-{[(2R)-2-carbamoyl-pyrrolidin-1-yl]carbonyl}phenyl)-10b-fluoro-11-hydroxy-10a,12a-dimethyl-1-[(methylsulfanyl)carbonyl]-1,2,3,3a,3b,4,5,7,10, 10a,10b,11,12,12a-tetradecahydrocyclo-penta[5,6]naphtho [1,2-f]indazol-1-yl propanoate]: the pIC50 is 8.48.

In the case of `CCC(=O)O[C@]1(C(=O)SCC#N)CC[C@H]2[C@@H]3CCC4=Cc5c(cnn5-c5cccc(C(=O)N6CCC[C@@H]6C(N)=O)c5)C[C@]4(C)[C@@]3(F)[C@@H](O)C[C@@]21C` [Example 60, (1R,3aS,3bS,10aS, 10bR,11S,12aS)-7-(3-{[(2R)-2-carbamoyl-pyrrolidin-1-yl]carbonyl}phenyl)-1-{[(cyanomethyl)sulfanyl]carbonyl}-10b-fluoro-11-hydroxy-10a,12a-dimethyl-1,2,3,3a, 3b,4,5,7,10,- 10a,10b,11,12,12a-tetradecahydro-cyclopenta[5,6]naphtho [1,2-f]indazol-1-yl propanoate], the pIC50 is 8.48.

`CCC(=O)O[C@]1(C(=O)SCF)CC[C@H]2[C@@H]3CCC4=Cc5c(cnn5-c5cccc(C(=O)N6CCC[C@@H]6C(N)=O)c5)C[C@]4(C)[C@@]3(F)[C@@H](O)C[C@@]21C` [Example 61, (1R,3aS,3bS,10aS, 10bR,11S,12aS)-7-(3-{[(2R)-2-carbamoyl-pyrrolidin-1-yl]carbonyl}phenyl)-10b-fluoro-1-{[(fluoromethyl)sulfanyl]carbonyl}-11-hydroxy-10a,12a-dimethyl-1,2,3,3a,3b,4,5,7,10, 10a,10b,11,12,12a-tetradecahydrocyclo-penta[5,6]naphtho [1,2-f]indazol-1-yl propanoate]: the pIC50 was 8.44.

For the compound `CCC(=O)O[C@]1(C(=O)SCF)CC[C@H]2[C@@H]3CCC4=Cc5c(cnn5-c5cccc(C(=O)NC6CCCC6)c5)C[C@]4(C)[C@H]3[C@@H](O)C[C@@]21C` [Example 62, (1R,3aS,3bS,10aR, 10bS,11S,12aS)-7-[3-(cyclopentylcarbamoyl)phenyl]-1-{[(fluoromethyl)sulfanyl]carbonyl}-11-hydroxy-10a,12a-dimethyl-1,2,3,3a,3b,4,5,7,10, 10a,10b,11,12,12a-tetradecahydrocyclo-penta[5,6]naphtho [1,2-f]indazol-1-yl propanoate], the pIC50 is 8.44.
